Laboratory results taken from patent US20040138826A1, “Experimental design and data analytical methods for detecting and characterizing interactions and interaction thresholds on fixed ratio rays of polychemical mixtures and subsets thereof” (priority 2002, published 2004).
Where two headings read alike, the source gives them in different places.

Columns and labels:
[1] = system: female CD-1 mice; experiment: Liver damage by serum sorbitol dehydrogenase (SDH) after 14 days oral gavage of trihalomethane DBPs; conditions: for Estimate of slope parameter γi, additivity model for SDH response: generalized linear model with power link, λ = 0.5, single chemical data only, female CD-1 mice, 14 days oral gavage; for Mean SDH (STD): positive control
Protocol: The mixture selected for the study used to illustrate the methodology proposed here is that of four trihalomethanes formed as disinfection by-products (DBPs) when water is chlorinated. […] The endpoint of interest is liver damage, as measured by serum sorbitol dehydrogenase (SDH) levels in female CD-1 mice after 14 days of exposure by oral gavage. Seven separate experiments were conducted: four single chemical studies and three mixture studies. A more complete description of the experimental methods is provided in Gennings, et al. (1997; 2000). […] The fixed mixing ratio of interest is associated with the chlorination process of disinfection (McDonald et al., 1999). The purpose of this study was to determine if the four DBPs combine additively, i.e., with no interaction.
The data used to illustrate the methodology developed in the following sections involves the combination of four chemicals, which are disinfection by-products in drinking water. Summary statistics for the single chemical data are provided in Gennings et al. (1997, 2000). A generalized linear model with a power link function, [formula]
After the single chemical studies were completed, three mixture studies were conducted. […] In order to verify that the dose-response relationship was consistent across the different studies, the additivity model given in (1) was used to predict the response for each of the positive control groups. […] The p-value is associated with the Wald-type test for equivalence of the two means.
The objective of this paper is to develop a method for testing for departure from additivity when the single chemical data cannot be used to describe the no interaction case. The mixture data of interest are assumed to result from a fixed-ratio ray design.

[2] = system: normal human epidermal keratinocytes (NHEK); conditions: for LD50 (estimated): Example 6; for LD50 (50% cell killing in individual cytotoxicity assays): predetermined, Example 5; for Sample Mean (% viability): single metal, 24 hr
Protocol: Cells and culture conditions. Cryopreserved, pooled normal human epidermal keratinocytes (NHEK) were purchased from the Clonetics Corp. (San Diego, Calif.). NHEK cells were grown in defined Keratinocyte Growth Medium-KGM™ (Clonetics).
Cytotoxicity analyses. For toxicity studies, cells were plated at a density of 2,500 cells/cm^2 in 6-well plastic tissue culture plates and grown for 24 hr before metal treatment. Triplicate wells of cells were treated with increasing concentrations of As, Cr, Cd, Pb, or a mixture of the four metals for 24 hr. Concentrations used for As and Cr were 0.3, 1, 3, 10 , and 100 mM. The Cr stock was made by mixing a 1:1 ratio of trivalent and hexavalent chromium. Cd and Pb were administered at 3, 10, 30, 100, and 300 mM. […] The concentrations of these three metals in the 1× mixture solution was 7.7 mM As, 4.9 mM Cr, 6.1 mM Cd. […] This 1× solution was serially diluted at a 1:3 ratio to get 0.333, 0.111, 0.037, 0.0123, 0.004, and 0.0014 dilution groups. Double deionized water was used as the vehicle control in all cases. After exposure to the individual metals or metal mixture, cells were refed with fresh metal-free KGM medium and incubated for 3 days prior to viability analysis by the MTT assay.
MTT assay. The MTT assay was carried out using a modification of the method of Mosmann (1983). MTT was dissolved at 5 mg/ml in 1× PBS [phosphate-buffered saline]. This stock solution was filtered through a […] and stored at 4° C. Immediately before use, the stock solution was diluted to 0.5 mg/ml with serum-free KGM to make a working solution. Working solution (1 ml) was added to each well of cells after aspiration of medium. Cells were incubated at 37° C. for 3 hr, after which time, the MTT was removed by aspiration. Cells were subsequently lysed by addition of 0.5 ml of dimethyl sulfoxide (DMSO). The absorbence at 550 nm of samples as well as a DMSO blank was read on a Microplate Autoreader (Bio-Tek Instruments, Inc, Winooski, Vt.). The absorbance of the DMSO blank was subtracted from all values. All absorbance values were standardized to the water vehicle control.
The methodology introduced in this paper is illustrated with cytotoxicity data obtained from assessing interactions among arsenic (As), cadmium (Cd), chromium (Cr), and lead (Pb) in human keratinocytes. The experimental data were obtained from Ray Yang and colleagues at Colorado State University. The endpoint of interest is the percent viability of treated NHEK cells using the MTT assay. […] This 1× solution was serially diluted at a 1:3 ratio to get 0.333, 0.111, 0.037, 0.0123, 0.004, and 0.0014 dilution groups. Double deionized water was used as the vehicle control in all cases.
After exposure to individual metals or metal exposure, cells were refed with fresh metal-free KGM medium and incubated for 3 days prior to viability analysis by the MTT assay. Details of the experimental protocol and methods are described elsewhere (24, 1) and are not included here.

[3] = 1.52 mM/kg, mixture study = 0.05 total dose
[4] = 1.52 mM/kg, mixture study = 1.5 total dose
[5] = 1.52 mM/kg, mixture study = 3.0 total dose

Structure (SMILES)	Estimate of slope parameter γi, additivity model for SDH response [1]	Mean SDH (STD) [1, 3]	Mean SDH (STD) [1, 4]	Mean SDH (STD) [1, 5]	LD50 (estimated) [2] [µM]	Sample Mean (% viability) ([2]; dose 3 (mM))	Sample Mean (% viability) ([2]; dose 10 (mM))	Sample Mean (% viability) ([2]; dose 30 (mM))	further results
ClC(Cl)Br [BDCM, bromodichloromethane]	3.567	107.3 (97.5)	56.0 (17.4)	48.8 (23.3)	–	–	–	–	–
ClC(Br)Br [CDBM, chlorodibromomethane]	3.833	–	–	–	–	–	–	–	Mean SDH (STD) ([1]; 0.76 mM/kg, mixture study = 0.05 total dose): 38.0 (11.2); Mean SDH (STD) ([1]; 0.76 mM/kg, mixture study = 1.5 total dose): 28.1 (6.7); Mean SDH (STD) ([1]; 0.76 mM/kg, mixture study = 3.0 total dose): 19.3 (3.6)
BrC(Br)Br [CHBr3, bromoform]	2.441	64.0 (27.8)	56.0 (24.8)	86.4 (89.2)	–	–	–	–	–
ClC(Cl)Cl [CHCl3, chloroform]	1.538	63.1 (34.9)	46.6 (21.5)	24.3 (5.8)	–	–	–	–	–
[Cl][Cd][Cl] [Cadmium, cadmium chloride]	–	–	–	–	6.1	92.6	51.9	20.2	LD50 (50% cell killing in individual cytotoxicity assays) [2]: 6.1 mM; Sample Mean (% viability) ([2]; dose 100 (mM)): 3.8 % viability; Sample Mean (% viability) ([2]; dose 300 (mM)): 4.6 % viability
[Cr] [Chromium]	–	–	–	–	4.9	79.8	23.9	6.6	LD50 (50% cell killing in individual cytotoxicity assays) [2]: 4.9 mM; Sample Mean (% viability) ([2]; dose 0.3 (mM)): 105.1 % viability; Sample Mean (% viability) ([2]; dose 1.0 (mM)): 99.7 % viability
CC(=O)[O-].CC(=O)[O-].[Pb+2] [Lead, lead acetate]	–	–	–	–	100	95.5	91.0	98.8	cell killing ([2]; individual cytotoxicity assay): unable to get complete killing at any dose tested; Sample Mean (% viability) ([2]; dose 100 (mM)): 93.7 % viability; Sample Mean (% viability) ([2]; dose 300 (mM)): 28.9 % viability
